According to US20040091578A1 (priority 2001, published 2004):

Tests used:
Fructose Bisphosphatase = target: T1, Fructose Bisphosphatase (Spinacia oleracea, UniProt P22418); assay: Activation of chloroplast fructose bisphosphatase by thioredoxin-reduced proteins; type: biochemical, spinach; details: 20 μg protein, 1 μg E. coli thioredoxin, DTT; corrected for thioredoxin alone
T1 construct: purified from leaves of corn (Jacquot, J.-P. et al. (1981), Plant Physiol. 68:300-304) and spinach; from tissue; host or cells: spinach leaves
T1 sequence (P22418 58-415): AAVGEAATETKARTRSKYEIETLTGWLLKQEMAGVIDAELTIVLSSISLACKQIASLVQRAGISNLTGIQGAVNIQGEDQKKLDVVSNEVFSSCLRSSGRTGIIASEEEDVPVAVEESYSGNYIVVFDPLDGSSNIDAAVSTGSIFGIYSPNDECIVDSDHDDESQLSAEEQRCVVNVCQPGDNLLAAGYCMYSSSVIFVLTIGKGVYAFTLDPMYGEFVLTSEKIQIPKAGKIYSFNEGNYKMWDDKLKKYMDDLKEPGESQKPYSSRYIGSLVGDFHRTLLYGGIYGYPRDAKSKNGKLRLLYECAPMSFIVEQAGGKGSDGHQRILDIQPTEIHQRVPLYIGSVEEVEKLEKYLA
Protocol: (§1) The NADP-MDH, FBPase, NTR and Thioredoxin h assay methods were according to Florencio, F. J. et al. (1988), Arch. Biochem. Biophys. 266:496-507 with slight modifications as indicated. For enzyme activation assays, the preincubation time was 20 min unless specified otherwise.
(§2) The Wada et al., 1981 protocol was used for assaying NADP-malate dehydrogenase and fructose 1,6 bisphosphatase in the presence of thioredoxin and 2S protein. Assays were conducted under conditions in which the amount of added thioredoxin was sufficient to reduce the castor 2S protein but insufficient to activate the target enzyme appreciably. All assays were at 25° C. Unless otherwise indicated, the thioredoxin and NTR used were from E. coli. The 2S protein was monitored during purification by mBBr/SDS-polyacrylamide gel electrophoresis following its reduction by dithiothreitol and E. coli thioredoxin (Crawford et al., 1989; Kobrehel et al., 1991).

[1] = target: T2, NADP-Malate Dehydrogenase (Zea mays, UniProt P15719); assay: Activation of chloroplast NADP-malate dehydrogenase by thioredoxin-reduced proteins; type: biochemical, corn; details: 20 μg protein with DTT-reduced thioredoxin h
T2 construct: were purified from leaves of corn; from tissue; host or cells: corn leaves
T2 sequence (P15719 41-432): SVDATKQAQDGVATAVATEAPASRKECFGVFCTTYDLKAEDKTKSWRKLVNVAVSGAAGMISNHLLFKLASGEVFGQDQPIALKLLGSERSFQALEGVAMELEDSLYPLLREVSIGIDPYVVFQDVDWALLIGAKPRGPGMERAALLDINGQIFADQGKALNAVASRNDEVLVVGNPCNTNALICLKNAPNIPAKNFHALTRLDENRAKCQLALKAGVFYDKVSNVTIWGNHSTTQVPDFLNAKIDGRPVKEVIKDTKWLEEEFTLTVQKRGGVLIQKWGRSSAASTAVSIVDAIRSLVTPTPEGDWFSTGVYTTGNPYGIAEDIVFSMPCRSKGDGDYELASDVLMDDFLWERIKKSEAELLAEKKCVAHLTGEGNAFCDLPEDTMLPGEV
Protocol: as §1
In one study 20 mM β-mercaptoethanol (β-MET) was used instead of DTT. Following preincubation, NADP-MDH was assayed spectrophoto-metrically.
as §2

glutaredoxin = target: T3, glutaredoxin (Escherichia coli, UniProt P68688); assay: Reduction by glutaredoxin, mBBr/SDS-PAGE with densitometric scanning; type: biochemical
T3 sequence (P68688 1-85): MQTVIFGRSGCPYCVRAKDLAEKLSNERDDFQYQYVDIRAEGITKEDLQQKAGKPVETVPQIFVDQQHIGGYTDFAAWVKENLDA
Protocol: Direct reduction of the proteins under study was determined by a modification of the method of Crawford et al. (Crawford, N. A. et al. (1989), Arch. Biochem. Biophys. 271:223-239). The reaction was carried out in 100 mM potassium phosphate buffer, pH 7.1, containing 10 mM EDTA and 16% glycerol in a final volume of 0.1 ml. As indicated, 0.7 μg (0.1 μM) NTR and 1 μg (0.8 μM) thioredoxin (both routinely from E. coli were added to 70 μl of the buffer solution containing 1 mM NADPH and 10 μg (2 to 17 μM) of target protein. When thioredoxin was reduced by dithiothreitol (DTT, 0.5 mM), NADPH and NTR were omitted. Assays with reduced glutathione were performed similarly, but at a final concentration of 1 mM. After incubation for 20 min, 100 nmoles of mBBr were added and the reaction was continued for another 15 min. To stop the reaction and derivatize excess mBBr, 10 μl of 10% SDS and 10 μl of 100 mM β-mercaptoethanol were added and the samples were then applied to the gels. […]
This ability was tested, using glutaredoxin from E. coli and the seed proteins currently under study. Reduction activity was monitored by the mBBr/SDS polyacrylamide gel electrophoresis procedure coupled with densitometric scanning.

For Aprotinin [Bovine lung (Aprotinin)], the “ACTIVITY, FBPase” value (Fructose Bisphosphatase) was 2 nkat/mg, the “ACTIVITY, NADP-MDH” value [1] was “Trace” and the “percentage reduction by glutaredoxin relative to E. coli thioredoxin” value (glutaredoxin) was “not affected”.
